Reference: patent EP4748837A1, “AROMATIC AMIDE DERIVATIVE, AND PREPARATION METHOD THEREFOR AND USE THEREOF” (Zhejiang Hisun Pharmaceutical Co., Ltd., priority 2023, dated 2025)

Key:
[1] = test system: OVCAR-3 human ovarian adenocarcinoma tumor mass; test: Pharmacodynamic testing in subcutaneous OVCAR-3 xenograft model; type: in vivo, BALB/c nude mice; conditions: for inhibitory effect on tumor growth (in words): 8 mg/kg, compared with the solvent control group and AMG650; for TGI% / Relative tumor volume (x±S) / Tumor volume (x±S): 35 days after administration, 8 mg/kg po QD, BALB/c nude mice; for Relative tumor volume (x±S) / Tumor volume (x±S): mean value ± standard error; for Tumor volume (x±S): in mm³ (unit assumed)
Description: Anti-tumor effects and Safeties of the Compounds 47 and 53 of the present invention in a BALB/c nude mouse animal model subjected to subcutaneous xenotransplantation of OVCAR-3 human ovarian adenocarcinoma tumor mass were evaluated.
BALB/c; nude mice, female, 6-7 weeks old, purchased from Jiangsu Gempharmatech Biotechnology Co., Ltd.
Mice in a solvent control group were given DMA: CrEL: 5%GS=10: 10: 80 (v: v: v). AMG650: a proper amount of AMG-650 was weigned, proper amounts of DMA, CrEL and 5% GS were added in sequence, and the mixture was well mixed by ultrasonic vortex to prepare 0.8 mg/mL drug preparations respectively, wherein DMA: CrEL : 5% GS=10: 10: 80 (v: v: v).
Compound 47: a proper amount of Compound 47 was added with proper amounts of DMA, CrEL and 5% GS in sequence, and evenly mixed by ultrasonic vortex to prepare 0.8 mg/mL drug preparations respectively, wherein DMA, CrEL and 5% GS=10: 10: 80 (v: v: v).
Compound 53: a proper amount of Compound 53 was weighed, proper amounts of DMA, CrEL and 5% GS were added in sequence, and the mixture was well mixed by ultrasonic vortex to prepare 0.8 mg/mL drug preparations respectively, wherein DMA: CrEL : 5% GS=10: 10: 80 (v: v: v).
An appropriate OVCAR-3 tumor-bearing animal was selected, and a 1 mm×1 mm×1 mm OVCAR-3 tumor mass was acquired aseptically and placed into normal saline for later use, which was used for subcutaneous tumor inoculation in a right side of back of the BALB/c nude mice.
About 1 mm×1 mm×1 mm OVCAR-3 tumor mass was subcutaneously inoculated in the right side of back of the female BALB/c nude mice. When an average tumor volume reached about 100-250 mm^3, the mice were randomly grouped based on tumor size, with 6 mice in each group.
Animals in each group were given the test compound once per day according to an animal weight at a fixed time every day by oral administration (po), the animals started to be administered with the test compound for the first time on the day of grouping for 35 consecutive days, and the animal weight was recorded every day.
The 1st group (G1) was a solvent control group; and
The 2nd-4th groups […] were orally administered with AMG-650, Compound 47 and Compound 53 at an administration dosage of 8 mg/kg once per day (QD).

HT-29 cells = test: Inhibition of HT-29 cell proliferation (CellTiter-Glo cell viability); type: cell-based; conditions: Homo sapiens; HT-29 cells (TP53 R273H mutation), 120 hours culture with compound; read-out: IC50
Outline: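 HT-29 cells (TP53 R273H) in McCOY's 5A with 10% FBS, seeded 1000 cells/well overnight, then exposed to compound at 1000 nM–0.015 nM final for 120 hours at 37°C. Viability by CellTiter-Glo luminescence versus 0.3% DMSO control; IC50 by nonlinear regression of log concentration–inhibition.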

Structure (SMILES) | inhibitory effect on tumor growth (in words) [1] | TGI% [1] | Relative tumor volume (x±S) [1] | Tumor volume (x±S) [1] | IC50 (HT-29 cells)
CCS(=O)(=O)Nc1ccc(C(=O)Nc2ccc(-c3ncn(C)n3)c(OCC(F)(F)F)c2)c(N2CCC3(CC2)CC3)c1 [Example 47, 4-(ethylsulfonamido)-N-(4-(1-methyl-1H-1,2,4-triazol-3-yl)-3-(2,2,2-trifluoroethoxy)pheny 1)-2-(6-azaspiro[2.5]octan-6-yl)benzamide] | more significant inhibitory effect on tumor growth | 95.5% | 0.22±0.11 | 40±20 | 0.54 nM
CCS(=O)(=O)Nc1ccc(C(=O)Nc2ccc(-c3ncccn3)c(OCC(F)(F)F)c2)c(N2CCC3(CC2)CC3)c1 [Example 53, 4-(ethylsulfonamido)-N-(4-(pyrimidin-2-yl)-3-(2,2,2-trifluoroethoxy)phenyl)-2-(6-azaspiro[2.5]octan-6-yl)benzamide] | more significant inhibitory effect on tumor growth | 98.0% | 0.10±0.04 | 21±9 | 6.8 nM
